Assays:
in vitro [1] = conditions: human, Caco-2
in vitro [2] = conditions: human, Caco-2; remark: listed apart in the source
in vitro [3] = conditions: human, Caco-2; remark: listed apart in the source
in vitro [4] = conditions: human, Caco-2; remark: listed apart in the source
[5] = Tmax in Sprague-Dawley rat at 5 mg/kg, po by LC-MS/MS method; format: ADME, organism-based; design: dose 5 mg/kg, route oral; conditions: in vivo
Rattus norvegicus [6] = test: Tmax in Sprague-Dawley rat assessed as 3-(2,5-Dichloro-4-((3-(4-cyclopropyl-1,2,3,4-tetrahydroquinoxaline-1-carbonyl)pyridin-4-yl)oxy)phenyl)propanoic acid level at 5 mg/kg, po by LC-MS/MS method; format: ADME, organism-based; design: dose 5 mg/kg, route oral; conditions: in vivo
[7] = Cmax in Sprague-Dawley rat at 5 mg/kg, po by LC-MS/MS method; format: ADME, organism-based; design: dose 5 mg/kg, route oral; conditions: in vivo
Rattus norvegicus [8] = test: Cmax in Sprague-Dawley rat assessed as 3-(2,5-Dichloro-4-((3-(4-cyclopropyl-1,2,3,4-tetrahydroquinoxaline-1-carbonyl)pyridin-4-yl)oxy)phenyl)propanoic acid level at 5 mg/kg, po by LC-MS/MS method; format: ADME, organism-based; design: dose 5 mg/kg, route oral; conditions: in vivo
[9] = AUC (0 to t) in Sprague-Dawley rat at 5 mg/kg, po by LC-MS/MS method; format: ADME, organism-based; design: dose 5 mg/kg, route oral; conditions: plasma
Rattus norvegicus [10] = test: AUC (0 to t) in Sprague-Dawley rat assessed as 3-(2,5-Dichloro-4-((3-(4-cyclopropyl-1,2,3,4-tetrahydroquinoxaline-1-carbonyl)pyridin-4-yl)oxy)phenyl)propanoic acid level at 5 mg/kg, po by LC-MS/MS method; format: ADME, organism-based, Plasma; design: dose 5 mg/kg, route oral; conditions: in vivo
[11] = AUC (0 to infinity) in Sprague-Dawley rat at 5 mg/kg, po by LC-MS/MS method; format: ADME, organism-based; design: time infinity, dose 5 mg/kg, route oral; conditions: plasma
Rattus norvegicus [12] = test: AUC (0 to infinity) in Sprague-Dawley rat assessed as 3-(2,5-Dichloro-4-((3-(4-cyclopropyl-1,2,3,4-tetrahydroquinoxaline-1-carbonyl)pyridin-4-yl)oxy)phenyl)propanoic acid level at 5 mg/kg, po by LC-MS/MS method; format: ADME, organism-based, Plasma; design: time infinity, dose 5 mg/kg, route oral; conditions: in vivo
[13] = Mean residence time in Sprague-Dawley rat at 5 mg/kg, po by LC-MS/MS method; format: ADME, organism-based; design: dose 5 mg/kg, route oral; conditions: in vivo
Rattus norvegicus [14] = test: Mean residence time in Sprague-Dawley rat assessed as 3-(2,5-Dichloro-4-((3-(4-cyclopropyl-1,2,3,4-tetrahydroquinoxaline-1-carbonyl)pyridin-4-yl)oxy)phenyl)propanoic acid level at 5 mg/kg, po by LC-MS/MS method; format: ADME, organism-based; design: dose 5 mg/kg, route oral; conditions: in vivo
[15] = Half life in Sprague-Dawley rat at 5 mg/kg, po by LC-MS/MS method; format: ADME, organism-based; design: dose 5 mg/kg, route oral; conditions: in vivo
Rattus norvegicus [16] = test: Half life in Sprague-Dawley rat assessed as 3-(2,5-Dichloro-4-((3-(4-cyclopropyl-1,2,3,4-tetrahydroquinoxaline-1-carbonyl)pyridin-4-yl)oxy)phenyl)propanoic acid level at 5 mg/kg, po by LC-MS/MS method; format: ADME, organism-based; design: dose 5 mg/kg, route oral; conditions: in vivo
Rattus norvegicus [17] = test: Drug level in Sprague-Dawley rat at 20 mg/kg, po after 15 mins to 24 hrs by LC-MS/MS method; format: ADME, organism-based; design: dose 20 mg/kg, route oral; conditions: in vivo
Rattus norvegicus [18] = test: Drug metabolism in Sprague-Dawley rat assessed as 3-(2,5-Dichloro-4-((3-(4-cyclopropyl-1,2,3,4-tetrahydroquinoxaline-1-carbonyl)pyridin-4-yl)oxy)phenyl)propanoic acid level at 20 mg/kg, po after 15 mins to 24 hrs by LC-MS/MS method; format: ADME, organism-based; design: dose 20 mg/kg, route oral; conditions: in vivo
[19] = Drug level in ICR mouse gall bladder at 150 mg/kg, po after 4 hrs by LC-MS/MS method; format: ADME, organism-based; design: dose 150 mg/kg, route oral; conditions: in vivo
[20] = Drug metabolism in ICR mouse gall bladder assessed as 3-(2,5-Dichloro-4-((3-(4-cyclopropyl-1,2,3,4-tetrahydroquinoxaline-1-carbonyl)pyridin-4-yl)oxy)phenyl)propanoic acid level at 150 mg/kg, po after 4 hrs by LC-MS/MS method; format: ADME, organism-based; design: dose 150 mg/kg, route oral; conditions: in vivo
[21] = Drug level in ICR mouse plasma at 150 mg/kg, po after 2 hrs by LC-MS/MS method; format: ADME, organism-based; design: dose 150 mg/kg, route oral
[22] = Drug level in ICR mouse plasma at 150 mg/kg, po after 2.5 hrs by LC-MS/MS method; format: ADME, organism-based; design: dose 150 mg/kg, route oral
[23] = Drug level in ICR mouse plasma at 150 mg/kg, po after 3.5 hrs by LC-MS/MS method; format: ADME, organism-based; design: dose 150 mg/kg, route oral
[24] = Drug level in ICR mouse bile at 150 mg/kg, po after 2 hrs by LC-MS/MS method; format: ADME, organism-based; design: dose 150 mg/kg, route oral; conditions: read-out: Drug uptake
[25] = Drug level in ICR mouse bile at 150 mg/kg, po after 2.5 hrs by LC-MS/MS method; format: ADME, organism-based; design: dose 150 mg/kg, route oral; conditions: read-out: Drug uptake
[26] = Drug level in ICR mouse bile at 150 mg/kg, po after 3.5 hrs by LC-MS/MS method; format: ADME, organism-based; design: dose 150 mg/kg, route oral; conditions: read-out: Drug uptake
[27] = Drug level in ICR mouse gall bladder at 150 mg/kg, po after 2 hrs by LC-MS/MS method; format: ADME, organism-based; design: dose 150 mg/kg, route oral; conditions: in vivo
[28] = Drug level in ICR mouse gall bladder at 150 mg/kg, po after 2.5 hrs by LC-MS/MS method; format: ADME, organism-based; design: dose 150 mg/kg, route oral; conditions: in vivo
[29] = Drug level in ICR mouse gall bladder at 150 mg/kg, po after 3.5 hrs by LC-MS/MS method; format: ADME, organism-based; design: dose 150 mg/kg, route oral; conditions: in vivo

O=C(c1cnccc1Oc1cc(Cl)ccc1Cl)N1CCN(C2CC2)c2ccccc21
Papp A→B at 20 µM (in vitro [1]): 6.75 ×10⁻⁶ cm/s | recovery at 20 µM (in vitro [2]): 46.8% | Papp B→A at 20 µM (in vitro [3]): 5.58 ×10⁻⁶ cm/s | recovery at 20 µM (in vitro [4]): 69.4%

O=C(O)CNC(=O)CCc1cc(Cl)c(Oc2ccncc2C(=O)N2CCN(C3CC3)c3ccccc32)cc1Cl
Tmax [5]: 26.4 min | Tmax (Rattus norvegicus [6]): 3.5 h | Cmax [7]: 13.5 ng/mL | Cmax (Rattus norvegicus [8]): 15.5 ng/mL | AUC(0-t) [9]: 23.9 ng·h/mL | AUCt (Rattus norvegicus [10]): 84.9 ng·h/mL | AUC(0-inf) [11]: 39.7 ng·h/mL | AUC (Rattus norvegicus [12]): 241 ng·h/mL | MRT [13]: 2.37 h | MRT (Rattus norvegicus [14]): 5.47 h | half-life [15]: 93.6 min | t1/2 (Rattus norvegicus [16]): 1.77 h

O=C(CCc1cc(Cl)c(Oc2ccncc2C(=O)N2CCN(C3CC3)c3ccccc32)cc1Cl)NCCOCCOCCOCCOCCOCCOCCOCCOCCNC(=O)CCc1cc(Cl)c(Oc2ccncc2C(=O)N2CCN(C3CC3)c3ccccc32)cc1Cl
Drug uptake (Rattus norvegicus [17]): < 3 ng/mL | Drug metabolism (Rattus norvegicus [18]): metabolite_notdetected | Drug uptake [19]: < 3 ng | Drug metabolism [20]: metabolite_notdetected | concentration at 2 h [21]: 4.4 nM | concentration at 2.5 h [22]: 6.9 nM | concentration at 3.5 h [23]: 2.9 nM | concentration at 2 h [24]: 3.6 nM | concentration at 2.5 h [25]: 3.5 nM | concentration at 3.5 h [26]: 3.8 nM | Drug uptake [27]: Not Active | Drug uptake [28]: Not Active | Drug uptake [29]: Not Active | Papp A→B at 20 µM (in vitro [1]): 0.04 ×10⁻⁶ cm/s | recovery at 20 µM (in vitro [2]): 99.5% | Papp B→A at 20 µM (in vitro [3]): 2.24 ×10⁻⁶ cm/s | recovery at 20 µM (in vitro [4]): 91.2%

C[C@H]1O[C@@H](O[C@H]2[C@@H](O)C[C@H](O[C@H]3[C@@H](O)C[C@H](O[C@H]4CC[C@@]5(C)[C@H](CC[C@@H]6[C@@H]5C[C@@H](O)[C@]5(C)[C@@H](C7=CC(=O)OC7)CC[C@]65O)C4)O[C@@H]3C)O[C@@H]2C)C[C@H](O)[C@@H]1O [DIGOXIN]
Papp A→B at 20 µM (in vitro [1]): 0.1 ×10⁻⁶ cm/s | recovery at 20 µM (in vitro [2]): 101% | Papp B→A at 20 µM (in vitro [3]): 15.8 ×10⁻⁶ cm/s | recovery at 20 µM (in vitro [4]): 95.8%
